Test results published in US20230357099A1, “PYRAZOLO [3,4-B] PYRIDINE-4-CARBOXAMIDE NITRIFICATION INHIBITOR” (EUROCHEM ANTWERPTEN, priority 2020, published 2023).

Columns and labels:
[1] = tested on: Nitrososphaera viennensis; assay: Nitrification inhibition assay on Nitrososphaera viennensis (nitrite, Griess); type: cell-based, Nitrososphaera viennensis EN76T; settings: Nitrososphaera viennensis; 2.5 µM compound; structural variants outside formula (I); read-out: Relative nitrification (%) by Nitrososphaera viennensis treated with 2.5 µM compound
Procedure: Nitrite (NO2—) was measured using the Griess reagent (Product number: G4410, Griess reagent (modified), Sigma-Aldrich). Equal volumes of the sample or a diluted sample and the Griess reagent were mixed a transparent flat bottom multi-well plate and incubated in the dark at room temperature for 10 minutes. Absorbance values at 540 nm were measured spectrophotometrically (EnVision, Perkin Elmer®) and used to calculate the [NO2—] by use of a standard curve.
A liquid culture sample of Nitrososphaera viennensis EN76T was kindly supplied by prof. dr. Christa Schleper (University of Vienna). Cells were grown in fresh water medium (FWM) as described earlier by Tourna et al. (2011). All necessary materials were rinsed with 1 % HCl and washed at least 3 times with MilliQ water. FWM (pH 7.5 (KOH)) contained 17 mM NaCl, 3 mM MgCl2 × 2 H2O, 680 µM CaCl2 × 2 H2O, 1.47 mM KH2PO4 and 6.71 mM KCI. After autoclaving, successively 1 mL non-chelated trace element mixture (101 mM HCl, 488 µM H3BO3, 508 µM MnCl2 × 4 H2O, 803 µM CoCl2 × 6 H2O, 101 µM NiCl2 × 6 H2O, 12 µM CuCl2 × 2 H2O, 503 µM ZnSO4 × 7 H2O and 150 µM Na2MoO4 × 2 H2O), 1 mL Fe-NaEDTA (7.5 mM), 1 mL vitamin solution (20 mg/L biotin, 20 mg/L folic acid, 100 mg/L pyridoxine-HCl, 50 mg/L thiamine-HCl, 50 mg/L riboflavin, 50 mg/L nicotinic acid, 50 mg/L DL-pantothenic acid, 50 mg/L P-aminobenzoic acid, 2 g/L choline chloride and 10 mg/L vitamin B12), 2 mL NaHCO3 (1 M), 2 mL kanamycin (100 mg/mL), 2 mL carbenicillin (100 mg/mL), 3 mL NH4Cl (1 M), 10 mL HEPES buffer (1 M, pH 7.6) and 1 mL Na-pyruvate (0.1 M) were added aseptically. All stock-solutions were filter-sterilized, except the autoclaved non-chelated trace element mixture. Cultures were incubated aerobically at 42° C. without shaking in sterile 250-mL Erlenmeyer flasks or 30-mL cultivation tubes (Product number: 216-1290, Quickstart universal containers STERILIN®, VWR) filled with either 100 or 20 mL FWM and sealed with tape (Micropore™ Surgical Tape 1530-1, 3M™). Late-log phase cultures ([NO2-] ≥ 1 mM) were subcultivated by dilution (1:400) in fresh FWM.
7-day old 100 mL cultures grown in 250-mL Erlenmeyer flasks with a [NO2-] ≥ 1 mM were 5 times overconcentrated in fresh FWM by centrifugation (4000 rpm, 15 min, 5° C.) in 50 mL centrifuge tubes (Cat. No. 430829, CentriStar™ Conical Centrifuge Tubes, Corning®). Per batch, all the cultures were pooled in one sterile Schott bottle. Subsequently, 200 µl/well was dispensed at low pipetting speed in transparent flat bottom 96-well plates (Cat. No. 353072, Falcon® 96 Well Clear Microplate, Corning®) using 150 µl wide-bore tips (two steps of 100 µl) on a Tecan robot (Freedom EVO®, Tecan). 0.5 µl of 99.99 % DMSO (negative control - final concentration 0.25%) and 0.5 µl of 0.04 M PTIO (2-phenyl-4,4,5,5-tetramethylimidazoline-1-oxyl 3-oxide, positive control - final concentration 100 µM) were added manually to the first and last column respectively. Finally, 0.5 µl of candidate nitrification inhibitors (1 mM stock solutions in 99.99% DMSO - final concentration 2.5 µM) were added to the central wells using a pin tool on a Tecan robot (Freedom EVO®, Tecan). In between additions, the pins were washed in sequence with 99.5% DMSO, MilliQ water and 100% ethanol and air-dried. All plates were sealed with tape (Micropore™ Surgical Tape 1530-1, 3M™), stacked per 4 on top of a 96-well plate filled with 100 µl MilliQ per well and covered with aluminum foil. Position effects of the stacks within the incubator were considered. Plates were incubated at 42° C. without shaking. 24 h later, NO2— was measured spectrophotometrically at 540 nm (EnVision, Perkin Elmer®). […]

[2] = tested on: ABIL (ammonia-binding liquid inoculum), nitrifying microbial enrichment containing both AOA and AOB; assay: Nitrification inhibition assay on ABIL (ammonium consumption); type: cell-based; settings: 10 µM compound; structural variants outside formula (I); read-out: Relative nitrification (%) by ABIL treated with 10 µM compound

SMILES	activity at 2.5 µM [1]	activity at 10 µM [2]
CCN(CC1CCOC1)C(=O)c1cc2cnn(C(C)C)c2nc1C (stereo not drawn) [Example 41]	100%	98%
CC(C)n1ncc2cc(C(=O)NCc3ccccc3OC(F)(F)F)cnc21 [Example 42]	98%	98%
CNS(=O)(=O)c1cccc(C(=O)Nc2cnc3c(c2)c(C)nn3C)c1 [Example 43]	100%	98%
Cc1nc2cc(NC(=O)c3cnc4c(cnn4C(C)C)c3)ccc2o1 [Example 44]	100%	99%
Cc1cc(C)c2c(OCC(=O)N3CCOCC3(C)C)nn(C)c2n1 [Example 45]	98%	99%
Cc1nc2c(c(C)nn2C)c(C)c1CCC(=O)N1CC(C)OC(C)C1 (stereo not drawn) [Example 46]	90%	99%
Cc1nc2c(c(C)nn2C)c(C)c1CCC(=O)NCCc1ccc2c(c1)OCO2 [Example 47]	100%	100%
Cc1nc2c(cc1C(=O)NC(C)C1CCCO1)c(C)nn2C (stereo not drawn) [Example 48]	99%	100%
COCCC1(C(=O)Nc2cnc3[nH]nc(C)c3c2)CCCC1 [Example 49]	100%	100%
CC(C)n1ncc2cc(NC(=O)C3(C)CC3(Cl)Cl)cnc21 (stereo not drawn) [Example 50]	92%	100%
CC(CCc1ccco1)NC(=O)c1cnc2c(cnn2Cc2ccccc2)c1 (stereo not drawn) [Example 51]	91%	100%
CC(NC(=O)c1cnc2c(cnn2C(C)C)c1)C1CCCO1 (stereo not drawn) [Example 52]	100%	100%
CC(C)n1ncc2cc(NC(=O)C3=CN4CCS(=O)(=O)N=C4C=C3)cnc21 [Example 53]	95%	100%
CCC(CC)CN(CC)C(=O)c1cnc2c(c1)c(C)nn2C [Example 54]	96%	100%
Cc1nnc(NC(=O)c2cnc3c(cnn3C(C)C)c2)s1 [Example 55]	100%	100%
CC(C)n1ncc2cc(NC(=O)Cc3ccc(F)cc3)cnc21 [Example 56]	100%	100%
Cc1nc2c(c(C)nn2C)c(C)c1CCC(=O)NC(C)C1CCCO1 (stereo not drawn) [Example 57]	97%	100%
CCC1CN(C(=O)CCc2c(C)nc3c(c(C)nn3C)c2C)CCO1 (stereo not drawn) [Example 58]	98%	100%
Cc1nn(C)c2ncc(CNCc3ccc(N4CCCC4)nc3)cc12 [Example 59]	92%	100%
Cc1nc2c(c(C)nn2C)c(C)c1CCC(=O)N1CCOCC1 [Example 60]	100%	100%
CC(C)n1ncc2cc(C(=O)O)cnc21 [Example 61]	100%	100%

SMILES	activity at 2.5 µM [1]	activity at 10 µM [2]
Cc1nc2c(cnn2C(C)C)cc1C(=O)NC(C)c1ccccc1Br (stereo not drawn) [Example 62]	100%	100%
Cc1nc2c(cnn2C(C)C)c(C)c1CCC(=O)NC12CC3CC(CC(C3)C1)C2 [Example 63]	100%	100%
CCC(C)(CC)NC(=O)COc1nn(C)c2nc(C)cc(C)c12 [Example 64]	100%	100%
CC(C)n1ncc2cc(NC(=O)CCc3cc4ccccc4o3)cnc21 [Example 65]	100%	100%
Cc1cc(-c2nc(-c3ccc4c(c3)OCO4)no2)c2c(C)nn(C)c2n1 [Example 66]	99%	100%
Cc1cc(C)c2c(OCC(=O)N(CC(F)F)C3CC3)nn(C)c2n1 [Example 67]	100%	100%
CC(C)n1ncc2cc(NC(=O)CCC(=O)c3ccccc3)cnc21 [Example 68]	100%	100%
CNC(=O)C1(C(=O)Nc2cnc3c(cnn3C(C)C)c2)CC1 [Example 69]	100%	100%
Cc1n[nH]c2ncc(CNCc3ccc4c(c3)OCO4)cc12 [Example 70]	100%	100%
Cc1cccc(C)c1OCC(=O)Nc1cnc2c(cnn2C(C)C)c1 [Example 71]	94%	100%
Cc1nn(-c2ccc(F)cc2)c2nc3c(cc12)C(=O)CC(C)(C)C3 [Example 72]	99%	100%
CCOc1cc(C(=O)Nc2cnc3c(cnn3C(C)C)c2)c([N+](=O)[O-])cc1OC [Example 73]	93%	100%
Cc1nc2c(cnn2C(C)C)cc1C(=O)N1CCc2ccccc21 [Example 74]	100%	100%
Cc1nc2c(c(C)nn2C)c(C)c1CCC(=O)N1CCOCC1C (stereo not drawn) [Example 75]	100%	100%
Cc1nn(C)c2ncc(NC(=O)CCC3CCCO3)cc12 (stereo not drawn) [Example 76]	100%	100%
Cc1nc2c(c(C)nn2C)c(C)c1CCC(=O)Nc1ccccc1C(=O)O [Example 77]	100%	100%
Cc1nc2c(cnn2C(C)C)cc1C(=O)N1CCSCC1 [Example 78]	100%	100%
COCCN(C(=O)c1cnc2c(cnn2C(C)C)c1)C1CC1 [Example 79]	97%	100%
Cc1nc2c(c(C)nn2C)c(C)c1CCC(=O)NCC1CCCO1 (stereo not drawn) [Example 80]	100%	100%
CC(C)n1ncc2cc(C(=O)NCc3ccccc3S(=O)(=O)N3CCCCC3)cnc21 [Example 81]	100%	100%
Cc1nn(C)c2ncc(CN3CCNCC3C)cc12 (stereo not drawn) [Example 82]	96%	100%
